Several values for one entry are separate records, joined by “and”; a condition that tells them apart may be missing. Equal values may be shown once. Inconclusive results and toxic doses are left out. How the source made its calls: active means survival T/C of 150% or more; inactive means T/C below 125% in these data. Peptide text beside a SMILES is read from it.
System: P388 leukemia ip, CD2F1 mice, survival T/C
Experiment: NCI In Vivo Anticancer Drug Screen. Data for tumor model P388 Leukemia (intraperitoneal) in CD2F1 (CDF1) mice
Conditions: endpoint: median survival time, higher = longer survival
Procedure, shortened: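 Mice carrying the transplanted tumor received test compound or vehicle. Survival was recorded in each group, and the value is the treated-group measurement divided by that of the vehicle-treated control group.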

[1] = dose: 50.0 mg/kg/injection, schedule: Q01DX009 (ip), vehicle: Klucel (hydroxypropylcellulose) (HPC)
[2] = dose: 100.0 mg/kg/injection, schedule: Q01DX009 (ip), vehicle: Klucel (hydroxypropylcellulose) (HPC)
[3] = dose: 60.0 mg/kg/injection, schedule: Q01DX005 (ip), vehicle: saline
[4] = dose: 120.0 mg/kg/injection, schedule: Q01DX005 (ip), vehicle: saline
[5] = dose: 240.0 mg/kg/injection, schedule: Q01DX005 (ip), vehicle: saline
[6] = dose: 50.0 mg/kg/injection, schedule: Q01DX005 (ip), vehicle: saline with Tween-80
[7] = dose: 100.0 mg/kg/injection, schedule: Q01DX005 (ip), vehicle: saline with Tween-80
[8] = dose: 200.0 mg/kg/injection, schedule: Q01DX005 (ip), vehicle: saline with Tween-80
[9] = dose: 25.0 mg/kg/injection, schedule: Q01DX009 (ip), vehicle: saline with Tween-80
[10] = dose: 50.0 mg/kg/injection, schedule: Q01DX009 (ip), vehicle: saline with Tween-80
[11] = dose: 50.0 mg/kg/injection, schedule: Q01DX005 (ip), vehicle: saline
[12] = dose: 100.0 mg/kg/injection, schedule: Q01DX005 (ip), vehicle: saline
[13] = dose: 200.0 mg/kg/injection, schedule: Q01DX005 (ip), vehicle: saline
[14] = dose: 25.0 mg/kg/injection, schedule: Q01DX005 (ip), vehicle: saline
[15] = dose: 100.0 mg/kg/injection, schedule: Q04DX002 (ip), vehicle: Klucel (hydroxypropylcellulose) (HPC)
[16] = dose: 200.0 mg/kg/injection, schedule: Q04DX002 (ip), vehicle: Klucel (hydroxypropylcellulose) (HPC)

Measured: T/C

O=C1c2ccccc2C(=O)N1/N=C/c1cccc(Cl)c1
inactive: dose: 100.0 mg/kg/injection, schedule: Q04DX002 (ip), vehicle: saline with Tween-80 100 % of control | dose: 200.0 mg/kg/injection, schedule: Q04DX002 (ip), vehicle: saline with Tween-80 93 % of control | dose: 400.0 mg/kg/injection, schedule: Q04DX002 (ip), vehicle: saline with Tween-80 89 % of control

O=CC(NC(=O)N(CCCl)N=O)C(O)C(O)C(O)CO (centres undefined)
active: dose: 0.78 mg/kg/injection, schedule: Q01DX009 (ip), vehicle: saline 156 % of control | dose: 1.5 mg/kg/injection, schedule: Q01DX005 (ip), vehicle: water 158 % of control | dose: 1.5 mg/kg/injection, schedule: Q04DX003 (ip), vehicle: saline 153 % of control | dose: 1.56 mg/kg/injection, schedule: Q01DX009 (ip), vehicle: saline 195 % of control | dose: 3.0 mg/kg/injection, schedule: Q01DX005 (ip), vehicle: saline 169 % of control | dose: 3.0 mg/kg/injection, schedule: Q01DX005 (ip), vehicle: water 163 % of control and 187 % of control | dose: 3.0 mg/kg/injection, schedule: Q04DX003 (ip), vehicle: saline 174 % of control | dose: 3.12 mg/kg/injection, schedule: Q01DX009 (ip), vehicle: saline 263 % of control | dose: 4.32 mg/kg/injection, schedule: Q04DX002 (ip), vehicle: saline 166 % of control | dose: 6.0 mg/kg/injection, schedule: Q01DX001 (ip), vehicle: saline 157 % of control | dose: 6.0 mg/kg/injection, schedule: Q01DX005 (ip), vehicle: saline 205 % of control | dose: 6.0 mg/kg/injection, schedule: Q01DX005 (ip), vehicle: water 199 % of control and 264 % of control | dose: 6.0 mg/kg/injection, schedule: Q01DX005 (iv), vehicle: saline 192 % of control | dose: 6.0 mg/kg/injection, schedule: Q04DX003 (ip), vehicle: saline 205 % of control | dose: 7.2 mg/kg/injection, schedule: Q04DX002 (ip), vehicle: saline 169 % of control | dose: 12.0 mg/kg/injection, schedule: Q01DX001 (ip), vehicle: saline 212 % of control | dose: 12.0 mg/kg/injection, schedule: Q01DX005 (ip), vehicle: saline 258 % of control | dose: 12.0 mg/kg/injection, schedule: Q04DX002 (ip), vehicle: saline 212 % of control | dose: 12.0 mg/kg/injection, schedule: Q04DX003 (ip), vehicle: saline 285 % of control and 371 % of control and 401 % of control | dose: 18.0 mg/kg/injection, schedule: Q04DX003 (ip), vehicle: saline 153 % of control and 175 % of control | dose: 20.0 mg/kg/injection, schedule: Q04DX002 (ip), vehicle: saline 287 % of control | dose: 24.0 mg/kg/injection, schedule: Q01DX001 (ip), vehicle: saline 277 % of control | dose: 24.0 mg/kg/injection, schedule: Q01DX001 (iv), vehicle: saline 166 % of control
265 % of control and 91 % of control: dose: 12.0 mg/kg/injection, schedule: Q01DX005 (ip), vehicle: water
inactive: dose: 6.0 mg/kg/injection, schedule: Q01DX001 (iv), vehicle: saline 109 % of control | dose: 12.0 mg/kg/injection, schedule: Q01DX005 (iv), vehicle: saline 119 % of control | dose: 27.0 mg/kg/injection, schedule: Q04DX003 (ip), vehicle: saline 96 % of control | dose: 40.0 mg/kg/injection, schedule: Q04DX003 (ip), vehicle: saline 74 % of control and 98 % of control

COc1ccc(/C=C2/OC(=O)C(C(C)=O)=C2O)cc1
inactive: [1] 115 % of control | [2] 100 % of control

c1ccc(-c2ccc[n+](C[n+]3cccc(-c4ccccn4)c3)c2)nc1
inactive: [3] 109 % of control | [4] 104 % of control | [5] 106 % of control

CC(C)C(NC(=O)C(N)CCC(=O)O)C(=O)O (stereo not drawn) (H-Glu-Val-OH; configuration not given here)
inactive: [6] 93 % of control | [7] 100 % of control | [8] 93 % of control

CC(C)=C1[C@@H]2C=C[C@@H]1[C@H]1C(=O)[C@@H]3O[C@]3(CO)C(=O)[C@H]12
inactive: [6] 106 % of control | [7] 101 % of control | [8] 108 % of control

CC(C)(O)Cc1ccc(Cl)cc1
inactive: [9] 99 % of control | [10] 105 % of control | dose: 100.0 mg/kg/injection, schedule: Q01DX009 (ip), vehicle: saline with Tween-80 108 % of control | dose: 200.0 mg/kg/injection, schedule: Q01DX009 (ip), vehicle: saline with Tween-80 105 % of control

CC(C)CNc1ncnc2c1cnn2C
inactive: [11] 94 % of control | [12] 112 % of control | [13] 115 % of control

CS(=O)(=O)CS(=O)(=O)OCCF
active: dose: 12.5 mg/kg/injection, schedule: Q01DX005 (ip), vehicle: saline 188 % of control | [14] 258 % of control and 285 % of control | [11] 285 % of control

CC[C@@H]1CN2CCc3c([nH]c4ccccc34)[C@@H]2C[C@@H]1/C(=C\OC)C(=O)OC
inactive: [14] 100 % of control and 96 % of control | [11] 98 % of control and 107 % of control and 108 % of control | [12] 109 % of control (2×) and 123 % of control

O=S(=O)(NCCSSCCNS(=O)(=O)c1ccc2ccccc2c1)c1ccc2ccccc2c1
inactive: [1] 91 % of control | [2] 92 % of control | dose: 200.0 mg/kg/injection, schedule: Q01DX009 (ip), vehicle: Klucel (hydroxypropylcellulose) (HPC) 88 % of control

C/C(=N\NC(=S)N1CCC(C)CC1)c1ncccn1
inactive: dose: 12.5 mg/kg/injection, schedule: Q04DX003 (ip), vehicle: Klucel (hydroxypropylcellulose) (HPC) 117 % of control | dose: 25.0 mg/kg/injection, schedule: Q04DX003 (ip), vehicle: Klucel (hydroxypropylcellulose) (HPC) 91 % of control

Cn1c(N)c(C(=O)/C=C/c2ccccc2)c(=O)n(CCN2CCOCC2)c1=O
inactive: [11] 100 % of control | [12] 94 % of control | [13] 89 % of control

Cc1ccc(S(=O)(=O)N(CCOc2c3occc3cc3ccc(=O)oc23)CCN(CCN(CCOc2c3occc3cc3ccc(=O)oc23)S(=O)(=O)c2ccc(C)cc2)S(=O)(=O)c2ccc(C)cc2)cc1
inactive: dose: 100.0 mg/kg/injection, schedule: Q01DX001 (ip), vehicle: saline with Tween-80 87 % of control | dose: 200.0 mg/kg/injection, schedule: Q01DX001 (ip), vehicle: saline with Tween-80 86 % of control

Cc1ccc2cc3c(ccc4ccccc43)c3c2c1CC3
inactive: dose: 25.0 mg/kg/injection, schedule: Q04DX003 (ip), vehicle: saline with Tween-80 113 % of control | dose: 33.0 mg/kg/injection, schedule: Q01DX009 (ip), vehicle: saline with Tween-80 121 % of control
active: dose: 100.0 mg/kg/injection, schedule: Q04DX003 (ip), vehicle: saline with Tween-80 150 % of control | dose: 300.0 mg/kg/injection, schedule: Q04DX003 (ip), vehicle: saline with Tween-80 152 % of control | dose: 400.0 mg/kg/injection, schedule: Q04DX003 (ip), vehicle: saline with Tween-80 172 % of control

CS(=O)(=O)CC(=N\N)/C(CS(C)(=O)=O)=N/N
inactive: [3] 100 % of control | [4] 100 % of control | [5] 108 % of control

C=C[Se](=C(C(C)=O)C(C)=O)c1ccccc1 (centres undefined)
inactive: dose: 12.5 mg/kg/injection, schedule: Q01DX009 (ip), vehicle: saline with Tween-80 97 % of control | [9] 96 % of control | [10] 98 % of control | dose: 50.0 mg/kg/injection, schedule: Q01DX009 (ip), vehicle: saline 92 % of control | dose: 100.0 mg/kg/injection, schedule: Q01DX009 (ip), vehicle: saline 99 % of control | dose: 200.0 mg/kg/injection, schedule: Q01DX009 (ip), vehicle: saline 92 % of control

O=c1c(-c2ccccc2)nnc2sc(-c3cccc(Cl)c3)nn12
inactive: dose: 50.0 mg/kg/injection, schedule: Q04DX002 (ip), vehicle: Klucel (hydroxypropylcellulose) (HPC) 98 % of control | [15] 93 % of control | [16] 90 % of control

c1ccc2c(c1)oc1cc3c(cc12)n1nnnc1c1cccn31
inactive: dose: 25.0 mg/kg/injection, schedule: Q01DX005 (ip), vehicle: saline with Tween-80 92 % of control | [6] 97 % of control | [7] 100 % of control | [8] 100 % of control

O=C(c1ccccc1)C1C(c2ccccc2)SC(c2ccccc2)CC1(O)Cl (centres undefined)
inactive: [15] 87 % of control | [16] 87 % of control | dose: 400.0 mg/kg/injection, schedule: Q04DX002 (ip), vehicle: Klucel (hydroxypropylcellulose) (HPC) 87 % of control
